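Values below derive from 48-hour exposures of cells grown in 96-well plates, with endpoints linearly interpolated between the two concentrations bracketing the appropriate inhibition level. At the GI50, growth is halved. TGI is the concentration that stops growth completely.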
What was measured:
Test in all cases: NCI-60 cell line screen, 48 h
786-0 renal = test system: 786-0 renal
A549 NSCLC = test system: A549 NSCLC
DU-145 prostate = test system: DU-145 prostate
IGROV1 ovarian = test system: IGROV1 ovarian
LOX IMVI melanoma = test system: LOX IMVI melanoma
NCI-H226 lung = test system: NCI-H226 lung
OVCAR-8 ovarian = test system: OVCAR-8 ovarian
SK-OV-3 ovarian = test system: SK-OV-3 ovarian
U251 CNS = test system: U251 CNS
HCT-116 colon = test system: HCT-116 colon

| Structure (SMILES) | GI50 (786-0 renal) [µM] | TGI (786-0 renal) [µM] | GI50 (A549 NSCLC) [µM] | TGI (A549 NSCLC) [µM] | GI50 (DU-145 prostate) [µM] | GI50 (IGROV1 ovarian) [µM] | GI50 (LOX IMVI melanoma) [µM] | TGI (LOX IMVI melanoma) [µM] | GI50 (NCI-H226 lung) [µM] | TGI (NCI-H226 lung) [µM] | GI50 (OVCAR-8 ovarian) [µM] | TGI (OVCAR-8 ovarian) [µM] | GI50 (SK-OV-3 ovarian) [µM] | TGI (SK-OV-3 ovarian) [µM] | GI50 (U251 CNS) [µM] | TGI (DU-145 prostate) [µM] | GI50 (HCT-116 colon) [µM] | TGI (HCT-116 colon) [µM] | TGI (U251 CNS) [µM] | TGI (IGROV1 ovarian) [µM] |
| --- | --- | --- | --- | --- | --- | --- | --- | --- | --- | --- | --- | --- | --- | --- | --- | --- | --- | --- | --- | --- |
| O=C1c2cc3c(cc2[C@@H]2[C@H]1c1ccc([N+](=O)[O-])cc1C(=O)N2CCCBr)OCO3 | < 0.01 | < 0.01 | < 0.01 | 0.0865 | < 0.01 | < 0.0136 | < 0.01 | < 0.0117 | < 0.01 | < 0.01 | < 0.01 | 0.271 | < 0.01 | > 100 | < 0.01 | – | – | – | – | – |
| Cc1ccccc1OCC(O)CN1CCN(c2ccc(Cl)cc2)CC1 (configuration not stated) | 17.4 | 32.6 | 30.2 | 84 | 17.9 | – | 15.3 | 31.3 | 18.6 | 35.9 | 21 | 44.4 | 21.2 | 53.8 | 18.7 | 32.7 | 14.6 | 29.3 | 33.7 | – |
| COc1c(O)c2c3c(cc(C)cc3c1C(C)C)OC2 | – | > 100 | – | > 100 | – | – | – | > 100 | – | > 100 | – | > 100 | – | > 100 | – | – | – | > 100 | > 100 | > 100 |
| NNC(=O)C1CCC(=O)N1S(=O)(=O)c1ccccc1 (configuration not stated) | – | > 100 | – | > 100 | – | – | – | > 100 | – | > 100 | – | > 100 | – | > 100 | – | – | – | > 100 | > 100 | > 100 |
| COc1cc(C(=O)c2c(-c3ccccc3)oc3c(OC)cccc23)cc(OC)c1OC | 0.073 | 3.1 | 0.0736 | > 100 | 0.125 | 0.0677 | 0.0536 | > 100 | 0.236 | – | 0.11 | > 100 | 1.57 | > 100 | 0.0514 | > 65.6 | – | – | > 100 | > 100 |
| CCOc1cc2c(C(=O)CC)c(O)ccc2o1 | – | > 100 | – | > 100 | – | – | – | > 100 | – | > 100 | – | > 100 | – | > 93.6 | – | – | – | > 72.5 | > 100 | > 100 |
| CCOC(=O)CC[C@H](NC(=O)c1nc[nH]c1[N+](=O)[O-])C(=O)OCC | – | > 100 | – | > 100 | – | – | – | > 100 | – | > 100 | – | > 100 | – | > 100 | – | – | – | > 100 | > 100 | > 100 |
| O=C1CCCCC1S(=O)(=O)c1ccccc1 (configuration not stated) | – | > 100 | – | > 100 | – | – | – | > 100 | – | > 100 | – | > 100 | – | > 100 | – | – | – | > 100 | > 100 | > 100 |
| NC(=O)CN(CC(N)=O)C(N)=O | – | > 100 | – | > 100 | – | – | – | > 100 | – | > 100 | – | > 100 | – | > 100 | – | – | – | > 100 | > 100 | > 100 |
| N/N=C(/C(=O)Nc1cccc(Cl)c1)C(C(=O)c1ccc(O)cc1O)C1OC(=O)c2ccccc21 (configuration not stated) | – | > 100 | – | > 100 | – | – | – | > 100 | – | > 100 | – | > 100 | – | > 100 | – | – | – | > 100 | > 100 | > 100 |
| COc1ccc(/C=C/c2cc(OC)c(OC)c(OC)c2)cc1 | – | > 100 | – | > 100 | – | – | – | > 100 | – | > 87.7 | – | > 100 | – | > 94.6 | – | – | – | > 77.2 | 11.7 | > 100 |
| CSc1nnc(CCC(=O)Nc2c(C)cccc2C)o1 | – | > 100 | – | > 100 | – | – | – | > 100 | – | > 100 | – | > 100 | – | > 100 | – | – | – | > 100 | > 100 | > 100 |
| COc1ccc2c(CN3CCCC[C@H]3C(=O)O)cc3cc4c(cc3c2c1)OCO4 | 6.71 | > 100 | 1.1 | 4.25 | 5.72 | – | 1.37 | 3.15 | 1.42 | 3.13 | 0.457 | 11.7 | 3.25 | 23.1 | 1.96 | 24.7 | – | – | 5.4 | – |
| COc1cc2c[n+](C)c3c4cc(OC)c(OC(C)C)cc4ccc3c2cc1OC | – | > 100 | – | > 100 | – | – | – | > 100 | – | > 100 | – | > 100 | – | > 100 | – | – | – | > 100 | > 100 | > 100 |
| COc1cc(OC)c(C/C=C/c2ccccc2)cc1O | – | 32.2 | – | 46.6 | – | – | – | 29.4 | – | 33.8 | – | 32.8 | – | – | – | 31.5 | – | 30 | 30.4 | 29.9 |
| COc1ccc2c(c1)C(=O)c1ccc(OC)cc1C2=S | – | > 100 | – | > 100 | – | – | – | > 100 | – | > 100 | – | > 100 | – | > 100 | – | – | – | > 100 | 61.7 | > 100 |
| Cc1nc(Nc2ccccc2)sc1C(=O)CC(=O)C(=O)Nc1c(C(C)C)cccc1C(C)C | – | > 100 | – | > 100 | – | – | – | > 100 | – | > 100 | – | > 100 | – | > 100 | – | – | – | > 100 | > 100 | > 100 |
| O=[N+]([O-])c1ccc(-n2nnc(C3=NCCN3)c2-c2ccccc2)cc1 | – | > 100 | – | > 100 | – | – | – | > 100 | – | > 100 | – | > 100 | – | > 100 | – | – | – | > 100 | > 100 | > 100 |
| C=Cc1cncc(C#N)c1CCc1c(C#N)cncc1C=C | > 100 | > 100 | > 100 | > 100 | – | > 100 | – | > 100 | > 100 | > 100 | > 100 | > 100 | – | > 10 | > 100 | – | > 100 | > 100 | > 100 | > 100 |
| O=C1C=CC(=O)C2=C1[C@@H](O)C1CC=CC3C(=O)O[C@@H]2C31 (some centres not stated) | – | > 55.2 | – | > 100 | – | – | – | 50.1 | – | > 75.1 | – | > 71.3 | – | > 100 | – | – | – | 39.7 | > 100 | 22.6 |
